Measured values: the supplement of paper PMC10307832

What was measured:
Assay in all cases: relative viability (nuclei count vs DMSO), 5 days (fraction); higher = more cells survive
TPCA-1 + Trametinib = compound: C1=CC(=CC=C1C2=CC(=C(S2)NC(=O)N)C(=O)N)F [TPCA-1] + CC(=O)Nc1cccc(-n2c(=O)n(C3CC3)c(=O)c3c(Nc4ccc(I)cc4F)n(C)c(=O)c(C)c32)c1 [Trametinib] (partner 0.02 µM)
Summary of the method: (§1)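 Five library-drug doses in √10 steps were combined with a fixed anchor-drug dose, or a single drug was given alone, by pin tool to lung cancer cell lines in 1536-well plates the day after seeding. Nuclei were stained and counted after 5 days. Relative viability is the nuclei count in treated wells over that in vehicle wells, taken as the median of duplicate plates.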

Lestaurtinib + AZD7762 = compound: C[C@]12O[C@H](C[C@]1(O)CO)n1c3ccccc3c3c4c(c5c6ccccc6n2c5c31)CNC4=O [Lestaurtinib] + NC(=O)Nc1cc(-c2cccc(F)c2)sc1C(=O)N[C@H]1CCCNC1 [AZD7762] (partner 0.2 µM)
Summary of the method: as §1

[1] = compound: C1/C(=C\C2=CC=CS2)/C(=O)/C(=C/C3=CC=CS3)/C1 + CC(=O)Nc1cccc(-n2c(=O)n(C3CC3)c(=O)c3c(Nc4ccc(I)cc4F)n(C)c(=O)c(C)c32)c1 [Trametinib] (partner 0.02 µM)
Summary of the method: as §1

Lestaurtinib + Olaparib = compound: C[C@]12O[C@H](C[C@]1(O)CO)n1c3ccccc3c3c4c(c5c6ccccc6n2c5c31)CNC4=O [Lestaurtinib] + O=C(c1cc(Cc2n[nH]c(=O)c3ccccc23)ccc1F)N1CCN(C(=O)C2CC2)CC1 [Olaparib] (partner 8 µM)
Summary of the method: as §1

Cell Line | relative viability (TPCA-1 + Trametinib; first compound 0.1265 µM) | relative viability (TPCA-1 + Trametinib; first compound 0.4 µM) | relative viability (TPCA-1 + Trametinib; first compound 1.265 µM) | relative viability (TPCA-1 + Trametinib; first compound 4 µM) | relative viability (Lestaurtinib + AZD7762; first compound 0.005 µM) | relative viability (Lestaurtinib + AZD7762; first compound 0.01581 µM) | relative viability (Lestaurtinib + AZD7762; first compound 0.05 µM) | relative viability (Lestaurtinib + AZD7762; first compound 0.1581 µM) | relative viability (Lestaurtinib + AZD7762; first compound 0.5 µM) | relative viability ([1]; first compound 0.2 µM) | relative viability ([1]; first compound 0.6325 µM) | relative viability ([1]; first compound 2 µM) | relative viability ([1]; first compound 6.325 µM) | relative viability ([1]; first compound 20 µM) | relative viability (Lestaurtinib + Olaparib; first compound 0.005 µM) | relative viability (Lestaurtinib + Olaparib; first compound 0.01581 µM) | relative viability (Lestaurtinib + Olaparib; first compound 0.05 µM) | relative viability (Lestaurtinib + Olaparib; first compound 0.1581 µM) | relative viability (Lestaurtinib + Olaparib; first compound 0.5 µM) | relative viability (TPCA-1 + Trametinib; first compound 0.04 µM)
HCC-366 | 0.323 | 0.331 | 0.312 | 0.24 | 0.315 | 0.305 | 0.339 | 0.447 | 0.556 | 0.386 | 0.371 | 0.316 | 0.314 | 0.329 | 0.375 | 0.338 | 0.35 | 0.455 | 0.254 | 
HCC-827 | 0.545 | 0.527 | 0.596 | 0.421 | 0.198 | 0.196 | 0.219 | 0.189 | 0.18 | 0.548 | 0.558 | 0.524 | 0.5 | 0.54 | 0.585 | 0.654 | 0.665 | 0.508 | 0.484 | 0.545
HOP-62 | 0.373 | 0.418 | 0.47 | 0.366 | 0.56 | 0.657 | 0.323 | 0.609 | 0.313 | 0.346 | 0.457 | 0.377 | 0.381 | 0.391 | 0.287 | 0.763 | 0.515 | 0.525 | 0.16 | 0.407
IA-LM |  |  |  |  |  |  |  |  |  |  |  |  |  |  | 0.835 | 0.944 | 0.991 | 0.819 | 0.774 | 
LC-2-ad | 0.941 | 0.958 | 0.968 | 0.765 | 0.892 | 0.908 | 0.558 | 0.409 | 0.225 | 0.9 | 0.94 | 0.893 | 0.781 | 0.897 | 0.82 | 0.823 | 0.832 | 0.55 | 0.28 | 0.946
LCLC-97TM1 | 0.152 | 0.163 | 0.205 | 0.204 | 0.167 | 0.279 | 0.166 | 0.175 | 0.114 | 0.216 | 0.198 | 0.221 | 0.174 | 0.218 |  | 0.456 | 0.299 | 0.185 | 0.188 | 0.208
LCLC-103H | 0.671 | 0.689 | 0.725 | 0.684 | 0.924 | 0.785 | 0.635 | 0.633 | 0.452 | 0.664 | 0.701 | 0.678 | 0.595 | 0.63 | 0.872 | 0.845 | 0.719 | 0.655 | 0.529 | 0.689
LK-2 | 0.535 | 0.873 | 0.659 | 0.504 | 0.388 | 0.523 | 0.272 | 0.276 | 0.135 | 0.643 | 0.968 | 0.809 | 0.712 | 0.707 | 0.767 | 0.896 | 0.602 | 0.466 | 0.133 | 0.76
LOU-NH91 | 0.735 | 0.835 | 0.773 | 0.714 | 0.688 | 0.754 | 0.573 | 0.524 | 0.378 | 0.777 | 0.775 | 0.781 | 0.75 | 0.806 | 0.894 | 0.903 | 0.89 | 0.712 | 0.531 | 0.8
NCI-H520 | 0.69 | 0.75 | 0.674 | 0.278 |  |  |  |  |  | 0.629 | 0.789 | 0.665 |  | 0.677 | 0.383 | 0.421 | 0.315 | 0.319 | 0.254 | 0.773
NCI-H661 | 0.541 | 0.535 | 0.573 | 0.377 |  |  |  |  |  | 0.593 | 0.602 | 0.585 | 0.523 | 0.549 | 0.813 | 0.754 | 0.684 | 0.735 | 0.419 | 0.67
NCI-H1299 |  |  |  |  |  |  |  |  |  |  |  |  |  |  | 0.994 | 1.06 | 0.814 | 0.89 | 0.721 | 
NCI-H1650 | 0.545 | 0.602 | 0.565 | 0.655 |  |  |  |  |  | 0.619 | 0.679 | 0.548 | 0.627 | 0.516 | 0.596 | 0.79 | 0.787 | 1.22 | 0.631 | 0.662
NCI-H1703 |  |  |  |  | 0.122 | 0.115 | 0.107 | 0.108 | 0.0966 |  |  |  |  |  | 0.437 | 0.285 | 0.145 | 0.212 | 0.123 | 
NCI-H2009 | 0.249 | 0.303 | 0.321 | 0.211 |  |  |  |  |  | 0.284 | 0.308 | 0.317 |  | 0.272 | 0.589 | 0.754 | 0.577 | 0.843 | 0.473 | 0.309
NCI-H2023 | 0.352 | 0.556 | 0.487 | 0.426 |  |  |  |  |  | 0.629 | 0.546 | 0.684 | 0.511 | 0.555 | 0.519 | 0.493 | 0.578 | 0.364 | 0.18 | 0.588
NCI-H2228 | 0.517 | 0.671 | 0.346 | 0.155 |  |  |  |  |  | 0.559 | 0.517 | 0.414 | 0.43 | 0.424 | 0.644 | 0.455 | 0.318 | 0.432 | 0.137 | 0.443
SK-LU-1 | 0.452 | 0.474 | 0.396 | 0.263 |  |  |  |  |  | 0.563 | 0.503 | 0.536 | 0.411 | 0.489 | 0.431 | 0.397 | 0.382 | 0.362 | 0.218 | 0.532
SK-MES-1 | 0.524 | 0.507 | 0.429 | 0.39 |  |  |  |  |  | 0.601 | 0.58 | 0.549 | 0.502 | 0.568 | 0.782 | 0.676 | 0.448 | 0.33 | 0.175 | 0.536
SW 1573 | 0.569 | 0.535 | 0.516 | 0.545 |  |  |  |  |  | 0.637 | 0.573 | 0.674 | 0.491 | 0.596 | 0.554 | 0.567 | 0.451 | 0.383 | 0.145 | 0.611
